Experiments:
[1] = biological target: T1, Cholesteryl ester transfer protein (Homo sapiens, UniProt P11597); experiment: Inhibition of recombinant CETP (unknown origin) assessed as inhibition of transfer of [3H] cholesteryl oleate or [3H] triolein between exogenous LDL and HDL in 2% human serum
T1 sequence (P11597 whole entry): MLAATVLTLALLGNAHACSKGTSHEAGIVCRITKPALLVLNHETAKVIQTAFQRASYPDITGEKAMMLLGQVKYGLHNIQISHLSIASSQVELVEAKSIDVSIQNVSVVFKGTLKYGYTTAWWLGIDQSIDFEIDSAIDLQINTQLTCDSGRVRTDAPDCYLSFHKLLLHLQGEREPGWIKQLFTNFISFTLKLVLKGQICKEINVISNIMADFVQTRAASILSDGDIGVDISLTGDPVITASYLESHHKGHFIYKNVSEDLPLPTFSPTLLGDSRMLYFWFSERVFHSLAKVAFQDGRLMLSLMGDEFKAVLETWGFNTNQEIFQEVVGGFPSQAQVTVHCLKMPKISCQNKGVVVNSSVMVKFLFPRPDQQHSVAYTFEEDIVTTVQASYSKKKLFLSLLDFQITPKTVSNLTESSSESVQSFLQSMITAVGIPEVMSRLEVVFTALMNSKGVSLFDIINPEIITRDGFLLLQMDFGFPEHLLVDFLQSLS

[2] = In vivo inhibition of CETP in cynomolgus-CETP transgenic mouse plasma at 1 mg/kg, po measured after 4 hrs; format: functional
[3] = biological target: T1, Cholesteryl ester transfer protein; experiment: Inhibition of CETP in 95% human serum assessed as inhibition of transfer of [3H] cholesteryl oleate or [3H] triolein between LDL and HDL; format: cell-free
[4] = Plasma concentration in cynomolgus-CETP transgenic mouse at 1 mg/kg, po measured after 4 hrs; format: ADME, organism-based
[5] = In vivo inhibition of CETP in cynomolgus-CETP transgenic mouse assessed as increase in plasma HDL-C level at 1 mg/kg, po measured after 4 hrs; format: functional; design: scale not given: the % may be the effect or the level left
[6] = In vivo inhibition of CETP in cynomolgus-CETP transgenic mouse assessed as increase in plasma HDL-C level at 0.3 mg/kg, po measured after 4 hrs; format: functional; design: scale not given: the % may be the effect or the level left
[7] = In vivo inhibition of CETP in cynomolgus-CETP transgenic mouse plasma at 0.3 mg/kg, po measured after 4 hrs; format: functional
[8] = Plasma concentration in cynomolgus-CETP transgenic mouse at 0.3 mg/kg, po measured after 4 hrs; format: ADME, organism-based

Row | SMILES | IC50 [1] [nM] | IC50 [3] [nM] | other results
1 | COc1ccc(-c2ccc(C(=O)O)cc2C)cc1-c1ccc(C(F)(F)F)cc1[C@@H]1CC[C@H]2[C@@H](c3cc(C(F)(F)F)cc(C(F)(F)F)c3)NC(=O)N12 | 379 | – | –
2 | COc1ccc(-c2ccc(C(=O)O)cc2C)cc1-c1ccc(C(F)(F)F)cc1[C@@H]1CC[C@H]2[C@@H](c3cc(C(F)(F)F)cc(C(F)(F)F)c3)N(C)C(=O)N12 | 414 | – | –
3 | COc1ccc(-c2cccnc2C)cc1-c1ccc(C(F)(F)F)cc1[C@@H]1CC[C@H]2[C@@H](c3cc(C(F)(F)F)cc(C(F)(F)F)c3)NC(=O)N12 | 151 | – | –
4 | COc1ncc(-c2ccc(C(=O)O)cc2C)cc1-c1ccc(C(F)(F)F)nc1CN1C(=O)N[C@H](c2cc(C(F)(F)F)cc(C(F)(F)F)c2)[C@@H]1C | 17 | 364 | inhibition in vivo at 1 mg/kg [2]: 87%; concentration at 4 h [4]: 1260 nM; Activity [5]: 139%
5 | COc1ccc(-c2ccc(C(=O)O)cc2C)cc1-c1cnc(C(F)(F)F)cc1[C@@H]1CC[C@H]2[C@@H](c3cc(C(F)(F)F)cc(C(F)(F)F)c3)NC(=O)N12 | 544 | – | –
6 | COc1ncc(-c2ccc(C(=O)O)cc2C)cc1-c1ccc(C(F)(F)F)cc1[C@@H]1CC[C@H]2[C@@H](c3cc(C(F)(F)F)cc(C(F)(F)F)c3)N(C)C(=O)N12 | 248 | – | –
7 | COc1ccc(CCC(=O)O)cc1-c1ccc(C(F)(F)F)cc1[C@@H]1CC[C@H]2[C@@H](c3cc(C(F)(F)F)cc(C(F)(F)F)c3)NC(=O)N12 | 550 | – | –
8 | COc1ccc(-c2ccc(C(=O)O)nc2C)cc1-c1ccc(C(F)(F)F)cc1[C@@H]1CC[C@H]2[C@@H](c3cc(C(F)(F)F)cc(C(F)(F)F)c3)NC(=O)N12 | 468 | – | –
9 | COc1ccc(-c2ccc(C(=O)O)cc2C)cc1-c1ccc(C(F)(F)F)cc1[C@@H]1CC[C@H]2[C@@H](c3cc(C(F)(F)F)cc(C(F)(F)F)c3)NS(=O)(=O)N12 | 135 | – | –
10 | COc1ncc(-c2c(C)cc(C(=O)O)cc2C)cc1-c1ccc(C(F)(F)F)cc1[C@@H]1CC[C@H]2[C@@H](c3cc(C(F)(F)F)cc(C(F)(F)F)c3)NC(=O)N12 | 104 | – | –

The next lines start with results.

Row | IC50 [1] [nM] | IC50 [3] [nM] | SMILES | other results
11 | 37 | 339 | COc1ccc(-c2ccc(C(=O)O)cc2C)cc1-c1ccc(C(F)(F)F)cc1CN1C(=O)N[C@H](c2cc(C(F)(F)F)cc(C(F)(F)F)c2)[C@@H]1C | inhibition in vivo at 1 mg/kg [2]: 87%; concentration at 4 h [4]: 700 nM; Activity [5]: 101%
12 | 1110 | 1730 | COc1ccc([C@H]2CC[C@H](C(=O)O)CC2)cc1-c1ccc(C(F)(F)F)cc1[C@@H]1CC[C@H]2[C@@H](c3cc(C(F)(F)F)cc(C(F)(F)F)c3)NC(=O)N12 | –
13 | 106 | 305 | COc1ncc(-c2ccc(C(=O)O)cc2C)cc1-c1ccc(C(F)(F)F)cc1[C@@H]1CC[C@H]2[C@@H](c3cc(C(F)(F)F)cc(C(F)(F)F)c3)NC(=O)N12 | Activity [6]: 58%; inhibition in vivo at 0.3 mg/kg [7]: 32%; concentration at 4 h [8]: 550 nM
14 | 18 | 446 | COc1ccc(-c2ccc(C(=O)O)cc2C)cc1-c1ccc(C(F)(F)F)nc1CN1C(=O)N[C@H](c2cc(C(F)(F)F)cc(C(F)(F)F)c2)[C@@H]1C | inhibition in vivo at 1 mg/kg [2]: 89%; concentration at 4 h [4]: 830 nM; Activity [5]: 86%
15 | 2780 | > 10000 | COc1cc(F)c(C(C)C)cc1-c1ccc(C(F)(F)F)cc1CN1C(=O)N[C@H](c2cc(C(F)(F)F)cc(C(F)(F)F)c2)[C@@H]1C | –
16 | 38 | 397 | COc1ncc(-c2ccc(C(=O)O)cc2C)cc1-c1ccc(C(F)(F)F)cc1CN1C(=O)N[C@H](c2cc(C(F)(F)F)cc(C(F)(F)F)c2)[C@@H]1C | –
17 | 394 | 2680 | COc1ccc([C@H]2CC[C@H](C(=O)O)CC2)cc1-c1ccc(C(F)(F)F)cc1[C@@H]1CC[C@H]2[C@@H](c3cc(C(F)(F)F)cc(C(F)(F)F)c3)NS(=O)(=O)N12 | –
18 | 55 | 95 | COc1ncc(-c2c(C)cc(C(=O)NC3(C#N)CC3)cc2C)cc1-c1ccc(C(F)(F)F)cc1[C@@H]1CC[C@H]2[C@@H](c3cc(C(F)(F)F)cc(C(F)(F)F)c3)NC(=O)N12 | inhibition in vivo at 1 mg/kg [2]: 67%; concentration at 4 h [4]: 1000 nM; Activity [5]: 30%
19 | 28 | 129 | COc1ncc(-c2ccc(C(=O)O)cc2C)cc1-c1ccc(C(F)(F)F)cc1CN1C(=O)N(C)[C@H](c2cc(C(F)(F)F)cc(C(F)(F)F)c2)[C@@H]1C | Activity [6]: 51%; inhibition in vivo at 0.3 mg/kg [7]: 77%; concentration at 4 h [8]: 630 nM
